Laboratory results reported in PubChem BioAssay (NCI).
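Compound exposure: 48 hours, 5 concentrations, 96-well plates. At the GI50, growth is halved. TGI is the concentration that stops growth completely.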

How the values were obtained:
Assay in all cases: NCI anticancer screen, dose series, 48 h
786-0 renal = system: 786-0 renal
A498 renal = system: A498 renal
A549 NSCLC = system: A549 NSCLC
ACHN renal = system: ACHN renal
BT-549 breast = system: BT-549 breast
CAKI-1 renal = system: CAKI-1 renal
CCRF-CEM leukemia = system: CCRF-CEM leukemia
COLO 205 colon = system: COLO 205 colon
DU-145 prostate = system: DU-145 prostate
EKVX NSCLC = system: EKVX NSCLC
HCC-2998 colon = system: HCC-2998 colon
HCT-116 colon = system: HCT-116 colon
HCT-15 colon = system: HCT-15 colon
HL-60(TB) leukemia = system: HL-60(TB) leukemia
HOP-62 NSCLC = system: HOP-62 NSCLC
HOP-92 NSCLC = system: HOP-92 NSCLC
HS 578T breast = system: HS 578T breast
HT29 colon = system: HT29 colon
IGROV1 ovarian = system: IGROV1 ovarian
K-562 leukemia = system: K-562 leukemia
KM12 colon = system: KM12 colon
LOX IMVI melanoma = system: LOX IMVI melanoma
M14 melanoma = system: M14 melanoma
MALME-3M melanoma = system: MALME-3M melanoma
MCF7 breast = system: MCF7 breast
MDA-MB-231 breast = system: MDA-MB-231 breast
MDA-MB-435 = system: MDA-MB-435
MOLT-4 leukemia = system: MOLT-4 leukemia
NCI-H226 lung = system: NCI-H226 lung
NCI-H23 lung = system: NCI-H23 lung
NCI-H460 lung = system: NCI-H460 lung
NCI-H522 lung = system: NCI-H522 lung
NCI/ADR-RES ovarian = system: NCI/ADR-RES ovarian
OVCAR-3 ovarian = system: OVCAR-3 ovarian
OVCAR-4 ovarian = system: OVCAR-4 ovarian
OVCAR-5 ovarian = system: OVCAR-5 ovarian
PC-3 prostate = system: PC-3 prostate
RPMI-8226 leukemia = system: RPMI-8226 leukemia
RXF 393 renal = system: RXF 393 renal
SF-268 CNS = system: SF-268 CNS
SF-295 CNS = system: SF-295 CNS
SF-539 CNS = system: SF-539 CNS
SK-MEL-2 melanoma = system: SK-MEL-2 melanoma
SK-MEL-28 melanoma = system: SK-MEL-28 melanoma
SK-MEL-5 melanoma = system: SK-MEL-5 melanoma
SK-OV-3 ovarian = system: SK-OV-3 ovarian
SN12C renal = system: SN12C renal
SNB-19 CNS = system: SNB-19 CNS
SNB-75 CNS = system: SNB-75 CNS
SR leukemia = system: SR leukemia
SW-620 colon = system: SW-620 colon
T-47D breast = system: T-47D breast
TK-10 renal = system: TK-10 renal
U251 CNS = system: U251 CNS
UACC-257 melanoma = system: UACC-257 melanoma
UACC-62 melanoma = system: UACC-62 melanoma
UO-31 renal = system: UO-31 renal

Which results are given for `Nc1cc2ccccc2c(O)c1O`?
GI50 (786-0 renal): 1850 nM; TGI (786-0 renal): 3.28 µM; GI50 (A498 renal): 16.1 µM; TGI (A498 renal): 30.5 µM; GI50 (A549 NSCLC): 20.5 µM; TGI (A549 NSCLC): 41.4 µM; GI50 (ACHN renal): 1690 nM; TGI (ACHN renal): 3.54 µM; GI50 (BT-549 breast): 13.3 µM; TGI (BT-549 breast): 26.1 µM; GI50 (CAKI-1 renal): 1670 nM; TGI (CAKI-1 renal): 3.1 µM; GI50 (CCRF-CEM leukemia): 3000 nM; TGI (CCRF-CEM leukemia): 7.85 µM; GI50 (COLO 205 colon): 15 µM; TGI (COLO 205 colon): 31.5 µM; GI50 (DU-145 prostate): 13.4 µM; TGI (DU-145 prostate): 27.4 µM; GI50 (EKVX NSCLC): 10.7 µM; TGI (EKVX NSCLC): 22.7 µM; GI50 (HCC-2998 colon): 12.8 µM; TGI (HCC-2998 colon): 27.1 µM; GI50 (HCT-116 colon): 2070 nM; TGI (HCT-116 colon): 4.5 µM; GI50 (HCT-15 colon): 1900 nM; TGI (HCT-15 colon): 4.08 µM; GI50 (HL-60(TB) leukemia): 2080 nM; TGI (HL-60(TB) leukemia): 5.77 µM; GI50 (HOP-62 NSCLC): 15.7 µM; TGI (HOP-62 NSCLC): 30.1 µM; GI50 (HOP-92 NSCLC): 1960 nM; TGI (HOP-92 NSCLC): 5.75 µM; GI50 (HS 578T breast): 5.7 µM; TGI (HS 578T breast): 96.2 µM; GI50 (HT29 colon): 19.6 µM; TGI (HT29 colon): 41.8 µM; GI50 (IGROV1 ovarian): 3.98 µM; TGI (IGROV1 ovarian): 16.3 µM; GI50 (K-562 leukemia): 2590 nM; TGI (K-562 leukemia): 8.11 µM; GI50 (KM12 colon): 5.24 µM; TGI (KM12 colon): 18.9 µM; GI50 (LOX IMVI melanoma): 1590 nM; TGI (LOX IMVI melanoma): 2940 nM; GI50 (M14 melanoma): 3.35 µM; TGI (M14 melanoma): 12.3 µM; GI50 (MALME-3M melanoma): 1870 nM; TGI (MALME-3M melanoma): 3.83 µM; GI50 (MCF7 breast): 1880 nM; TGI (MCF7 breast): 4.32 µM; GI50 (MDA-MB-231 breast): 1960 nM; TGI (MDA-MB-231 breast): 5.22 µM; GI50 (MDA-MB-435): 1830 nM; TGI (MDA-MB-435): 3.38 µM; GI50 (MOLT-4 leukemia): 2490 nM; TGI (MOLT-4 leukemia): 6.27 µM; GI50 (NCI-H226 lung): 2360 nM; TGI (NCI-H226 lung): 5.84 µM; GI50 (NCI-H23 lung): 3.5 µM; TGI (NCI-H23 lung): 17.9 µM; GI50 (NCI-H460 lung): 13 µM; TGI (NCI-H460 lung): 32.1 µM; GI50 (NCI-H522 lung): 1970 nM; TGI (NCI-H522 lung): 3.94 µM; GI50 (NCI/ADR-RES ovarian): 2370 nM; TGI (NCI/ADR-RES ovarian): 6.21 µM; GI50 (OVCAR-3 ovarian): 1740 nM; TGI (OVCAR-3 ovarian): 3.52 µM; GI50 (OVCAR-4 ovarian): 1530 nM; TGI (OVCAR-4 ovarian): 2880 nM; GI50 (OVCAR-5 ovarian): 3.13 µM; TGI (OVCAR-5 ovarian): 13.5 µM; GI50 (PC-3 prostate): 1730 nM; TGI (PC-3 prostate): 3.91 µM; GI50 (RPMI-8226 leukemia): 2720 nM; TGI (RPMI-8226 leukemia): 7.13 µM; GI50 (RXF 393 renal): 1830 nM; TGI (RXF 393 renal): 3.25 µM; GI50 (SF-268 CNS): 1780 nM; TGI (SF-268 CNS): 3.59 µM; GI50 (SF-295 CNS): 15.7 µM; TGI (SF-295 CNS): 29.8 µM; GI50 (SF-539 CNS): 1790 nM; TGI (SF-539 CNS): 3.32 µM; GI50 (SK-MEL-2 melanoma): 14.4 µM; TGI (SK-MEL-2 melanoma): 33.1 µM; GI50 (SK-MEL-28 melanoma): 12.8 µM; TGI (SK-MEL-28 melanoma): 27.4 µM; GI50 (SK-MEL-5 melanoma): 15.1 µM; TGI (SK-MEL-5 melanoma): 29.3 µM; GI50 (SK-OV-3 ovarian): 15.4 µM; TGI (SK-OV-3 ovarian): 29 µM; GI50 (SN12C renal): 2130 nM; TGI (SN12C renal): 4.78 µM; GI50 (SNB-19 CNS): 15.6 µM; TGI (SNB-19 CNS): 31.9 µM; GI50 (SNB-75 CNS): 1940 nM; TGI (SNB-75 CNS): 18.4 µM; GI50 (SR leukemia): 3.16 µM; TGI (SR leukemia): 13.2 µM; GI50 (SW-620 colon): 2080 nM; TGI (SW-620 colon): 4.33 µM; GI50 (T-47D breast): 2710 nM; TGI (T-47D breast): 7.69 µM; GI50 (TK-10 renal): 17.9 µM; TGI (TK-10 renal): 32.2 µM; GI50 (U251 CNS): 1910 nM; TGI (U251 CNS): 3.48 µM; GI50 (UACC-257 melanoma): 5.31 µM; TGI (UACC-257 melanoma): 18.1 µM; GI50 (UACC-62 melanoma): 5.65 µM; TGI (UACC-62 melanoma): 18.7 µM; GI50 (UO-31 renal): 2530 nM; TGI (UO-31 renal): 10.3 µM
